Measurements as given in ChEMBL document CHEMBL5653631, “A Potent and Selective ULK1 Inhibitor Suppresses Autophagy and Sensitizes Cancer Cells to Nutrient Stress” (iScience, 2018).

How the values were obtained:
[1] = biological target: T1, Serine/threonine-protein kinase D3 (Homo sapiens) (UniProt O94806); experiment: Inhibition of human recombinant PKD3 at 40 nM in presence of ATP by radiometric assay relative to control
T1 sequence (whole entry): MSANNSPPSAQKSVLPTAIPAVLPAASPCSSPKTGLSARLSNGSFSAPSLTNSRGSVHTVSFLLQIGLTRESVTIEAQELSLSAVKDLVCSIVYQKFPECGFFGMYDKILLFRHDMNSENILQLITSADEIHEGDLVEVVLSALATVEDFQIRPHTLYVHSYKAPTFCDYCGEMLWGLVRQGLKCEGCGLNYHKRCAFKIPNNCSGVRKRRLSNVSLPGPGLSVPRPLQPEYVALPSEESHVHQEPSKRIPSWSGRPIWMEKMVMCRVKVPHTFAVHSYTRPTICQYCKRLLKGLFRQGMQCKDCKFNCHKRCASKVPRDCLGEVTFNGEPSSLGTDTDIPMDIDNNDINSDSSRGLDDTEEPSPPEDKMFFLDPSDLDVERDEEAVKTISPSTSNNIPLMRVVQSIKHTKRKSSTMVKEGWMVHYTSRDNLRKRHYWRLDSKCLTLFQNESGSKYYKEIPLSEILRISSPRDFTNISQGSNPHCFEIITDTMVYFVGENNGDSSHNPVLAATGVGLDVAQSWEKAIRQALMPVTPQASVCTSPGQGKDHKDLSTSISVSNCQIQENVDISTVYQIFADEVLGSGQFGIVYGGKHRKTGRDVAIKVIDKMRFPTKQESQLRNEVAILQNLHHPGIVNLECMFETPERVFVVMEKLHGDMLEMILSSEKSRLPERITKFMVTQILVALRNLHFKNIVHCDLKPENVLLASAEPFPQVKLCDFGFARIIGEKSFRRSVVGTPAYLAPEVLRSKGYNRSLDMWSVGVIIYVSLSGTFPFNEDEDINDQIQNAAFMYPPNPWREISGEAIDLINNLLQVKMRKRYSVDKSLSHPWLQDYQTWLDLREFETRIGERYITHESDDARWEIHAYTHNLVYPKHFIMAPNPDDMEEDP

[2] = biological target: T2, Serine/threonine-protein kinase Chk1 (Homo sapiens) (UniProt O14757); experiment: Inhibition of human recombinant CHK1 at 15 nM in presence of ATP by radiometric assay relative to control
T2 sequence (whole entry): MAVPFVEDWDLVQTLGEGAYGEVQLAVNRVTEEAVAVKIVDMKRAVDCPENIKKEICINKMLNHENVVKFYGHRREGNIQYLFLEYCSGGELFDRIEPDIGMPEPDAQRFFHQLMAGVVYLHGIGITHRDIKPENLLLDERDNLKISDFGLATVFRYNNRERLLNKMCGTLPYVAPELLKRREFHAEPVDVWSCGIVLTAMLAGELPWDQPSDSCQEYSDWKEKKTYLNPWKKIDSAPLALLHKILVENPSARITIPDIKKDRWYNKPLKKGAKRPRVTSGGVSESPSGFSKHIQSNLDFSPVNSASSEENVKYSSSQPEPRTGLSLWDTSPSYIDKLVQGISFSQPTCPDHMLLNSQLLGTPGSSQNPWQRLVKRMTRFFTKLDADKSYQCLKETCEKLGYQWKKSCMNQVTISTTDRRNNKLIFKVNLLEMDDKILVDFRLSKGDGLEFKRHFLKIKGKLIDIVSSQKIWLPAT

[3] = biological target: Protein-tyrosine kinase 2-beta (Homo sapiens) (UniProt Q14289); experiment: Inhibition of human recombinant PYK2 at 15 nM in presence of ATP by radiometric assay relative to control
[4] = biological target: T3, Dual specificity protein kinase TTK (Homo sapiens) (UniProt P33981); experiment: Inhibition of human recombinant TTK at 500 nM in presence of ATP by radiometric assay relative to control
T3 sequence (whole entry): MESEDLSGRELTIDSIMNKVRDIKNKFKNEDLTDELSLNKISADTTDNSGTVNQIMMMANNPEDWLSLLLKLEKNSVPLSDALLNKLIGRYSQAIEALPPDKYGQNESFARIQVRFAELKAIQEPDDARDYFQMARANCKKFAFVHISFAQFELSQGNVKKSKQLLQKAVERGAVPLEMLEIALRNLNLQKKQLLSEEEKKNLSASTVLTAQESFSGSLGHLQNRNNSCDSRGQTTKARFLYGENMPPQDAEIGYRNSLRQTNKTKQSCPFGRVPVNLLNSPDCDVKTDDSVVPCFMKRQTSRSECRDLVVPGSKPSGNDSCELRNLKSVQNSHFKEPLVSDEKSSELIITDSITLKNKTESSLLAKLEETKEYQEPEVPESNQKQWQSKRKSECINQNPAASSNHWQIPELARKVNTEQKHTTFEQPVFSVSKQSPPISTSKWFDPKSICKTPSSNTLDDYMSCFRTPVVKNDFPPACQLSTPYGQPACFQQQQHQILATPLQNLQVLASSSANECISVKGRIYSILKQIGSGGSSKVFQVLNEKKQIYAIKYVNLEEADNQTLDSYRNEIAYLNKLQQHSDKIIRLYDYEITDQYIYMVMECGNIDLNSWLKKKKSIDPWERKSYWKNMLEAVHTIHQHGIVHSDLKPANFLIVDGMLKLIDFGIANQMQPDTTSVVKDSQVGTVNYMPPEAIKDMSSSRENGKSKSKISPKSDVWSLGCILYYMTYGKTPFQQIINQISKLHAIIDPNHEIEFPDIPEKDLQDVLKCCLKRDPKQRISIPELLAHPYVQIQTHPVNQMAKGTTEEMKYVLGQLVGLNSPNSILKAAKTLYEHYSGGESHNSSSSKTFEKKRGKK

Chain of Protein-tyrosine kinase 2-beta (Homo sapiens) (Q14289 whole entry, looked up): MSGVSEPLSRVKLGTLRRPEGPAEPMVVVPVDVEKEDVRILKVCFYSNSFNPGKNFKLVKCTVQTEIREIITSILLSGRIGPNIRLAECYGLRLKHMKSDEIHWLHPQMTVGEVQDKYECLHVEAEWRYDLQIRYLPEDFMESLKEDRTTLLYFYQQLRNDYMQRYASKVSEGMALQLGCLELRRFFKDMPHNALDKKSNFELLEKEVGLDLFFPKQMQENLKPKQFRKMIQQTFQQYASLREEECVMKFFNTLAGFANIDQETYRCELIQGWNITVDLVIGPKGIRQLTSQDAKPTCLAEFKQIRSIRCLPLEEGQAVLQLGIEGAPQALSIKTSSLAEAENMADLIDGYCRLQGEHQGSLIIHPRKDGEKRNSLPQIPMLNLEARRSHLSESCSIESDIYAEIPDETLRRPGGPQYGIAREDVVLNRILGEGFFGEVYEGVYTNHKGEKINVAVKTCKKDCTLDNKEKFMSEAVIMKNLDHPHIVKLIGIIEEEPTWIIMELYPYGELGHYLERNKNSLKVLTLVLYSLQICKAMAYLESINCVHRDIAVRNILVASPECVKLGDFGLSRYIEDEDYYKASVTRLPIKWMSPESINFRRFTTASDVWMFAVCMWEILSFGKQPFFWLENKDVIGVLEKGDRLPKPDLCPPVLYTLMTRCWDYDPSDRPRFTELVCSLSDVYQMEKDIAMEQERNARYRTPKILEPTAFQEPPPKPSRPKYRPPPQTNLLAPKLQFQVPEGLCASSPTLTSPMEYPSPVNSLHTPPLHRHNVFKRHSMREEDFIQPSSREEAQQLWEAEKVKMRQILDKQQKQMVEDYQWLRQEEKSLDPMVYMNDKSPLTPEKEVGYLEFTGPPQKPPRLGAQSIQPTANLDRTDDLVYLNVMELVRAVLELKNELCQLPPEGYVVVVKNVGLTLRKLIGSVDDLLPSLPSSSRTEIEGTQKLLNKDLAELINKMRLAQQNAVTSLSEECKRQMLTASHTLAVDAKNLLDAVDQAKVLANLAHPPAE

O=C(N[C@@H](C1CC1)C(F)(F)F)c1cc(-c2cnn3cc(-c4ccc(F)cc4)cnc23)cs1
inhibition [1]: 7%

CC(C)[C@H](NC(=O)c1cc(-c2cnn3cc(-c4ccc(OCCN5CCCCC5)cc4)cnc23)cs1)C(F)(F)F
inhibition [2]: 0% | inhibition [3]: 0%

CNC(=O)c1ccccc1Oc1nc(Nc2cc(OC)c(OC)c(OC)c2)ncc1Br
inhibition [4]: 11%
